Data taken from patent publication US20260000692A1, “Substituted N-(Pyridin-2-yl)Acetamide Derivatives as CDK12/13 Inhibitors” (Aurigene Oncology Limited, priority 2022, published 2026).
Where two headings read alike, the source gives them in different places.

Target: CDK12 (Homo sapiens, UniProt Q9NYV4)
Experiment: Biochemical assay for CDK12 (LANCE TR-FRET, IC50 determination)
Settings: for IC50: CDK12, IC50 class; for inhibition at 10 µM: read-out: CDK12 % Inhibition @ 10 μM
Method in brief: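 30 nM CDK12 phosphorylated 100 nM ULight-4E-BP1 (Thr37/Thr46) peptide at 100 µM ATP, as printed, in HEPES pH 7.5 buffer with MgCl2 and DTT. Compound and enzyme were preincubated 60 min, then reacted 60 min at room temperature before stopping with EDTA and Eu anti-phospho antibody. TR-FRET 665/615 ratio gave sigmoidal IC50 fits.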

Sequence of CDK12 (Q9NYV4 whole entry): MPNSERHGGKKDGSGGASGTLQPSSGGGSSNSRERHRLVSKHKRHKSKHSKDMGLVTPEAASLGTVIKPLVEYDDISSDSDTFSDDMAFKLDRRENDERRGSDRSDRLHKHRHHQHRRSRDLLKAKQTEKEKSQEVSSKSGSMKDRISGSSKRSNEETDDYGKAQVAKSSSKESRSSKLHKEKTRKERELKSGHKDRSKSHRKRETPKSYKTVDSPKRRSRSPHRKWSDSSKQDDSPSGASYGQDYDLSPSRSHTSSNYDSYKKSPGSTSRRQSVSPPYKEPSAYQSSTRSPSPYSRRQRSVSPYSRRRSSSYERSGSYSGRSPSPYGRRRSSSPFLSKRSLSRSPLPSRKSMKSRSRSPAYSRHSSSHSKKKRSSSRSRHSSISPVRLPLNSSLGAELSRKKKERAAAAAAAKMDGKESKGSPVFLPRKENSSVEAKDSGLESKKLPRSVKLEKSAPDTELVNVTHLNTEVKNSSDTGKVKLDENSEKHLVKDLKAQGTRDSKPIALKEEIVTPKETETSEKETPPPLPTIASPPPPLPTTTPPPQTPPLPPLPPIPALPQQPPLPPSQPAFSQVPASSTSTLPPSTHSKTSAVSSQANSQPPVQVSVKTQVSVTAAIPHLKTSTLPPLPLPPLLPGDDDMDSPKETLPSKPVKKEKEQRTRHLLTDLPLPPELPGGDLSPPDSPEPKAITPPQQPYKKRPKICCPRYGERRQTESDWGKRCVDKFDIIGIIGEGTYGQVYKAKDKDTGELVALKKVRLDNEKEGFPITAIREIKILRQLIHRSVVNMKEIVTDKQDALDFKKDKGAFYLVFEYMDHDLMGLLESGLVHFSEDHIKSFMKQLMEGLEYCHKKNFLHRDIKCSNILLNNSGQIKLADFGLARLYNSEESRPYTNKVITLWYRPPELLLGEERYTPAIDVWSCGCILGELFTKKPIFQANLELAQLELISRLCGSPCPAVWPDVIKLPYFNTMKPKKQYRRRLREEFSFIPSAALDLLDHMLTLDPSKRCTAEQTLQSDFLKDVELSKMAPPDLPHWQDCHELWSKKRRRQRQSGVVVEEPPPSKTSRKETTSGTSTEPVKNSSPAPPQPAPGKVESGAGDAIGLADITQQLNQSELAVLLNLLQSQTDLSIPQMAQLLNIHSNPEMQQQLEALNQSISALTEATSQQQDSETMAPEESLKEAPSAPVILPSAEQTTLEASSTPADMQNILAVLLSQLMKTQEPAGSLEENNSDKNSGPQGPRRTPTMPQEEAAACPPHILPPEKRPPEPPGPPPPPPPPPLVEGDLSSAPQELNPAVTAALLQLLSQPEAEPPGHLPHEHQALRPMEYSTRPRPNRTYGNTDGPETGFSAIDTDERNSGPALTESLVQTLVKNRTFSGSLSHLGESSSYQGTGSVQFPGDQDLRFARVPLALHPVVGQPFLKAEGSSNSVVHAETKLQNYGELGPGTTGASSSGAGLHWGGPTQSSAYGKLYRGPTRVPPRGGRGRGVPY
Sequence of CDK12 (O75909 whole entry partner): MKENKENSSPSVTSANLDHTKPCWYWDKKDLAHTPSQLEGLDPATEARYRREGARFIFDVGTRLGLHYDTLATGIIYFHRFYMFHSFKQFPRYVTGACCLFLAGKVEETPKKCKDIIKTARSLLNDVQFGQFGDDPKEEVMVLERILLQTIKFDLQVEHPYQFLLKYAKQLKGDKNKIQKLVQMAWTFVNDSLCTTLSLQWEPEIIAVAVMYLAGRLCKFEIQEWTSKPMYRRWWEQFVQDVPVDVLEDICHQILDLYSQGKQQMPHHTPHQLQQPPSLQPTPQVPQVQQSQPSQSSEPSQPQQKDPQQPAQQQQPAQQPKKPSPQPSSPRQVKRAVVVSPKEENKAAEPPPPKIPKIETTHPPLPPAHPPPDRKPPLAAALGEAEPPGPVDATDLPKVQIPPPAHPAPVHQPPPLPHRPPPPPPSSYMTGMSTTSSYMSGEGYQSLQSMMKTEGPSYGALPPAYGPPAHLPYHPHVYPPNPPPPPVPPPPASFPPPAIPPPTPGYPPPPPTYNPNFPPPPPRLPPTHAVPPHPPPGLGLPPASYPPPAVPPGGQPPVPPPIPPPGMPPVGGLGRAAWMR

**Q.** Which IC50 (read-out: IC50 μM (in range)) does the source give for `CN1CCC(Oc2cc(NC(=O)Cc3ccc(C4=CCN(C#N)CC4)nc3)ncc2Cl)C1` (stereo not shown) [Compound 10, N-(5-chloro-4-((1-methylpyrrolidin-3-yl)oxy)pyridin-2-yl)-2-(1′-cyano-1′,2′,3′,6′-tetrahydro-[2,4′-bipyridin]-5-yl)acetamide] here?
**A.** < 0.01 µM

**Q.** What about the inhibition at 10 µM (compound at 10 μM) of the same molecule?
**A.** 72%

**Q.** How did the IC50 (read-out: IC50 μM (in range)) turn out when `CN1CC[C@H](Oc2cc(NC(=O)Cc3ccc(C4=CCCN(C#N)C4)nc3)ncc2Cl)C1` [Compound 39, (S)-N-(5-chloro-4-((1-methylpyrrolidin-3-yl)oxy)pyridin-2-yl)-2-(1′-cyano-1′,2′,5′,6′-tetrahydro-[2,3′-bipyridin]-5-yl)acetamide] was run?
**A.** 0.01 to 0.1 µM

**Q.** And the inhibition at 10 µM (compound at 10 μM)?
**A.** 98%

**Q.** Which IC50 (read-out: IC50 μM (in range)) does the source give for `COc1cc(NC(=O)Cc2ccc(-c3cc(N4CCN(C)CC4)cc(C#N)n3)nc2)ncc1Cl` [Compound 191, N-(5-chloro-4-methoxypyridin-2-yl)-2-(6′-cyano-4′-(4-methylpiperazin-1-yl)-[2,2′-bipyridin]-5-yl)acetamide] here?
**A.** 0.01 to 0.1 µM

**Q.** What about the inhibition at 10 µM (compound at 10 μM) of the same molecule?
**A.** 94%

**Q.** What does the source list for `N#CN1CCC=C(c2ccc(CC(=O)Nc3cc(OC4CCOCC4)c(Cl)cn3)cn2)C1` [Compound 61, N-(5-chloro-4-((tetrahydro-2H-pyran-4-yl)oxy)pyridin-2-yl)-2-(1′-cyano-1′,2′,5′,6′-tetrahydro-[2,3′-bipyridin]-5-yl)acetamide]?
**A.** IC50 (read-out: IC50 μM (in range)): < 0.01 µM; inhibition at 10 µM (compound at 10 μM): 89%

**Q.** What does the source list for `N#CN1CCC(c2ccc(CC(=O)Nc3ccc(Cl)cn3)cn2)C1` (stereo not shown) [Compound 16, N-(5-chloropyridin-2-yl)-2-(6-(1-cyanopyrrolidin-3-yl)pyridin-3-yl)acetamide]?
**A.** IC50 (read-out: IC50 μM (in range)): 0.01 to 0.1 µM; inhibition at 10 µM (compound at 10 μM): 89%

**Q.** `N#CN1CCC=C(c2ccc(CC(=O)Nc3cc(OC4CCCOC4)c(Cl)cn3)cn2)C1` (stereo not shown) [Compound 43, N-(5-chloro-4-((tetrahydro-2H-pyran-3-yl)oxy)pyridin-2-yl)-2-(1′-cyano-1′,2′,5′,6′-tetrahydro-[2,3′-bipyridin]-5-yl)acetamide] was tested. Which IC50 (read-out: IC50 μM (in range)) did it give?
**A.** < 0.01 µM

**Q.** And the inhibition at 10 µM (compound at 10 μM)?
**A.** 87%

**Q.** `CNC(=O)C(C)Oc1cc(NC(=O)Cc2ccc(C3=CCCN(C#N)C3)nc2)ncc1Cl` (single isomer, unassigned) [Compound 58, 2-((5-chloro-2-(2-(1′-cyano-1′,2′,5′,6′-tetrahydro-[2,3′-bipyridin]-5-yl)acetamido)pyridin-4-yl)oxy)-N-methylpropanamide] was tested. Which IC50 (read-out: IC50 μM (in range)) did it give?
**A.** < 0.01 µM

**Q.** And the “CDK12 % Inhibition @ 10 μM” value (compound at 10 μM)?
**A.** 98%

**Q.** Which results are given for `CN1CCC[C@H](Oc2cc(NC(=O)Cc3ccc(C4CCN(C#N)CC4)nc3)ncc2Cl)C1` [Compound 125, (S)-N-(5-chloro-4-((1-methylpiperidin-3-yl)oxy)pyridin-2-yl)-2-(6-(1-cyanopiperidin-4-yl)pyridin-3-yl)acetamide]?
**A.** IC50 (read-out: IC50 μM (in range)): > 0.1 µM; inhibition at 10 µM (compound at 10 μM): 72%

**Q.** How did the IC50 (read-out: IC50 μM (in range)) turn out when `COc1cc(NC(=O)C(C)c2ccc(C3=CCCN(C#N)C3)nc2)ncc1Cl` (stereo not shown) [Compound 48, N-(5-chloro-4-methoxypyridin-2-yl)-2-(1′-cyano-1′,2′,5′,6′-tetrahydro-[2,3′-bipyridin]-5-yl)propanamide] was run?
**A.** < 0.01 µM

**Q.** What about the inhibition at 10 µM (compound at 10 μM) of the same molecule?
**A.** 90%

**Q.** Which results are given for `COc1cc(NC(=O)Cc2ccc(C3=CCN(C#N)CC3C)nc2)ncc1Cl` (stereo not shown) [Compound 70, N-(5-chloro-4-methoxypyridin-2-yl)-2-(1′-cyano-3′-methyl-1′,2′,3′,6′-tetrahydro-[2,4′-bipyridin]-5-yl)acetamide]?
**A.** IC50 (read-out: IC50 μM (in range)): < 0.01 µM; inhibition at 10 µM (compound at 10 μM): 94%

**Q.** What does the source list for `CNC(=O)[C@H](C)Oc1cc(NC(=O)Cc2cnc(C3CCN(C#N)CC3)c(OC)c2)ncc1Cl` [Compound 128, (S)-2-((5-chloro-2-(2-(6-(1-cyanopiperidin-4-yl)-5-methoxypyridin-3-yl)acetamido)pyridin-4-yl)oxy)-N-methylpropanamide]?
**A.** IC50 (read-out: IC50 μM (in range)): < 0.01 µM; inhibition at 10 µM (compound at 10 μM): 83%

**Q.** What does the source list for `COc1cc(NC(=O)Cc2ccc(C3CCCN(C#N)C3)nc2)ncc1Cl` (stereo not shown) [Compound 78, N-(5-chloro-4-methoxypyridin-2-yl)-2-(6-(1-cyanopiperidin-3-yl)pyridin-3-yl)acetamide]?
**A.** IC50 (read-out: IC50 μM (in range)): 0.01 to 0.1 µM; inhibition at 10 µM (compound at 10 μM): 87%

**Q.** `CN1CC[C@@H](Oc2cc(NC(=O)Cc3ccc(C4=CCCN(C#N)C4)nc3)ncc2Cl)C1` [Compound 38, (R)-N-(5-chloro-4-((1-methylpyrrolidin-3-yl)oxy)pyridin-2-yl)-2-(1′-cyano-1′,2′,5′,6′-tetrahydro-[2,3′-bipyridin]-5-yl)acetamide] was tested. Which IC50 (read-out: IC50 μM (in range)) did it give?
**A.** < 0.01 µM

**Q.** And the inhibition at 10 µM (compound at 10 μM)?
**A.** 88%

**Q.** `CN(C)C(=O)Oc1cc(NC(=O)Cc2ccc(C3=CCN(C#N)CC3)nc2)ncc1Cl` [Compound 100, 5-chloro-2-(2-(1′-cyano-1′,2′,3′,6′-tetrahydro-[2,4′-bipyridin]-5-yl)acetamido)pyridin-4-yl dimethylcarbamate] was tested. Which IC50 (IC50 μM (in range)) did it give?
**A.** 0.01 to 0.1 µM

**Q.** And the inhibition at 10 µM?
**A.** 77%

**Q.** `COc1cc(NC(=O)Cc2ccc(-c3ccc(C#N)nc3)nc2)ncc1Cl` [Compound 140, N-(5-chloro-4-methoxypyridin-2-yl)-2-(6′-cyano-[2,3′-bipyridin]-5-yl)acetamide] was tested. Which IC50 (read-out: IC50 μM (in range)) did it give?
**A.** > 0.1 µM

**Q.** And the inhibition at 10 µM (compound at 10 μM)?
**A.** 83%

**Q.** How did the IC50 (read-out: IC50 μM (in range)) turn out when `CNC(=O)C(C)Oc1cc(NC(=O)Cc2ccc(C3=CCCN(C#N)C3)nc2)ncc1Cl` (stereo not shown) [Compound 56, 2-((5-chloro-2-(2-(1′-cyano-1′,2′,5′,6′-tetrahydro-[2,3′-bipyridin]-5-yl)acetamido)pyridin-4-yl)oxy)-N-methylpropanamide] was run?
**A.** < 0.01 µM

**Q.** What about the inhibition at 10 µM (compound at 10 μM) of the same molecule?
**A.** 100%

**Q.** What does the source list for `N#CN1CCC=C(c2ccc(CC(=O)Nc3ccc(Cl)cn3)cn2)C1` [Compound 5, N-(5-chloropyridin-2-yl)-2-(1′-cyano-1′,2′,5′,6′-tetrahydro-[2,3′-bipyridin]-5-yl)acetamide]?
**A.** IC50 (read-out: IC50 μM (in range)): 0.01 to 0.1 µM; inhibition at 10 µM (compound at 10 μM): 75%

**Q.** Which results are given for `CCOc1cc(NC(=O)Cc2ccc(C3=CCN(C#N)CC3)nc2)ncc1Cl` [Compound 20, N-(5-chloro-4-ethoxypyridin-2-yl)-2-(1′-cyano-1′,2′,3′,6′-tetrahydro-[2,4′-bipyridin]-5-yl)acetamide]?
**A.** IC50 (read-out: IC50 μM (in range)): < 0.01 µM; inhibition at 10 µM (compound at 10 μM): 109%

**Q.** What does the source list for `COc1cc(NC(=O)Cc2ccc(C3CC4CN(C#N)CC4C3)nc2)ncc1Cl` (stereo not shown) [Compound 76, N-(5-chloro-4-methoxypyridin-2-yl)-2-(6-(2-cyanooctahydrocyclopenta[c]pyrrol-5-yl)pyridin-3-yl)acetamide]?
**A.** IC50 (read-out: IC50 μM (in range)): < 0.01 µM; inhibition at 10 µM (compound at 10 μM): 90%

**Q.** Which IC50 (read-out: IC50 μM (in range)) does the source give for `COc1cc(NC(=O)Cc2ccc(N3CCN(C#N)CC3)nc2)ncc1Cl` [Compound 134, N-(5-chloro-4-methoxypyridin-2-yl)-2-(6-(4-cyanopiperazin-1-yl)pyridin-3-yl)acetamide] here?
**A.** 0.01 to 0.1 µM

**Q.** What about the inhibition at 10 µM (compound at 10 μM) of the same molecule?
**A.** 82%

**Q.** For `CNC(=O)C(C)Oc1cc(NC(=O)Cc2ccc(C3CCCN(C#N)C3)nc2)ncc1Cl` (single isomer, unassigned) [Compound 89, 2-((5-chloro-2-(2-(6-(1-cyanopiperidin-3-yl)pyridin-3-yl)acetamido)pyridin-4-yl)oxy)-N-methylpropanamide], which IC50 (read-out: IC50 μM (in range)) is on record?
**A.** 0.01 to 0.1 µM

**Q.** And the “CDK12 % Inhibition @ 10 μM” value (compound at 10 μM)?
**A.** 90%

**Q.** For `N#CN1CCC=C(c2ccc(CC(=O)Nc3ccccn3)cn2)C1` [Compound 102, 2-(1′-cyano-1′,2′,5′,6′-tetrahydro-[2,3′-bipyridin]-5-yl)-N-(pyridin-2-yl)acetamide], which IC50 (read-out: IC50 μM (in range)) is on record?
**A.** > 0.1 µM

**Q.** What about the inhibition at 10 µM (compound at 10 μM) of the same molecule?
**A.** 87%

**Q.** Which IC50 (read-out: IC50 μM (in range)) does the source give for `CN1CCC(Oc2cc(NC(=O)Cc3ccc(C4=CCN(C#N)CC4)nc3)ncc2Cl)C1` (stereo in doubt) [Compound 29, (R)-N-(5-chloro-4-((1-methylpyrrolidin-3-yl)oxy)pyridin-2-yl)-2-(1′-cyano-1′,2′,3′,6′-tetrahydro-[2,4′-bipyridin]-5-yl)acetamide] here?
**A.** 0.01 to 0.1 µM

**Q.** What about the inhibition at 10 µM (compound at 10 μM) of the same molecule?
**A.** 86%
